Molecules are shown by their SMILES.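 The compound was tested at five concentrations on cells cultured in 96-well plates, with a 48-hour exposure period. GI50 marks 50% less growth.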 Active and inactive are the calls of the source. Rule as the data show it: active = GI50 up to about 1.1 µM and inactive = higher.

The results in this text go back to ChEMBL document CHEMBL1201862, “PubChem BioAssay data set” (2004).

Among the test systems are HOP-62; UO-31; OVCAR-5; RXF 393; HCC 2998; MOLT-4; RPMI-8226; OVCAR-3; LOX IMVI; K562; SR; SW-620; TK-10; A549; NCI/ADR-RES; NCI-H460.
Holding throughout (test): NCI-60 cell line screen, 48 h

For `COc1cc(C(=O)C2C(=O)c3ccccc3C2C2(O)c3ccccc3CC2C(O)c2cc(OC)c(OC)c(OC)c2)cc(OC)c1OC` (stereo not given), the GI50 with HOP-62 was 17.6 µM (inactive); in the assay on UO-31, > 100 µM (inactive); in the assay with OVCAR-5 it was > 100 µM (inactive); in the assay on RXF 393, > 100 µM (inactive); in the assay with HCC 2998, > 100 µM (inactive); in the assay with MOLT-4, > 100 µM (inactive). Further, the GI50 in the assay on RPMI-8226 is 15.2 µM (inactive); in the assay with OVCAR-3, > 100 µM (inactive); with LOX IMVI, > 100 µM (inactive); in the assay on K562, > 100 µM (inactive); in the assay with SR, > 100 µM (inactive); with SW-620, > 100 µM (inactive). The GI50 in the assay with TK-10, in the assay on A549, in the assay with NCI/ADR-RES and in the assay with NCI-H460 was > 100 µM (inactive) in each case.

Turning to `Nc1ccc(-c2ncc3cc(-c4cccc(-c5cc6cnc(-c7ccc(N)cc7)nc6c6ccccc56)c4)c4ccccc4c3n2)cc1`, the GI50 in the assay on HOP-62, in the assay with UO-31, in the assay on OVCAR-5, with RXF 393, with HCC 2998 and in the assay on MOLT-4 was > 100 µM (inactive) in each case. The GI50 in the assay on RPMI-8226, with OVCAR-3, in the assay with LOX IMVI, with K562, with SR and with SW-620 was > 100 µM (inactive) in each case. In addition, the GI50 with TK-10, with A549, in the assay on NCI/ADR-RES and in the assay on NCI-H460 was > 100 µM (inactive) throughout.

Regarding `Cc1cccc(CC(Cc2c(C)cccc2C(=O)O)C(=O)O)c1` (stereo not given), the GI50 in the assay on HOP-62 is > 100 µM (inactive); in the assay on UO-31, > 100 µM (inactive); in the assay with OVCAR-5, > 100 µM (inactive); with RXF 393, > 100 µM (inactive); in the assay on HCC 2998, 67.6 µM (inactive); with MOLT-4 it was > 100 µM (inactive). Besides, the GI50 with RPMI-8226, with OVCAR-3, with LOX IMVI, in the assay with K562, in the assay on SR and with SW-620 was > 100 µM (inactive) throughout. Also, the GI50 in the assay on TK-10, with A549, in the assay on NCI/ADR-RES and in the assay on NCI-H460 was > 100 µM (inactive) in each case.

With `N/C(=N\N=C\c1cc2ccccc2s1)c1cnccn1`, the GI50 with HOP-62, in the assay with UO-31, in the assay with OVCAR-5, in the assay on RXF 393, with RPMI-8226 and in the assay with OVCAR-3 was > 100 µM (inactive) in each case. Moreover, the GI50 is > 100 µM (inactive) in the assay on LOX IMVI; 3.85 µM (inactive) in the assay with K562; 6 µM (inactive) with SR; > 100 µM (inactive) with SW-620; 87.7 µM (inactive) in the assay with TK-10; > 100 µM (inactive) in the assay with A549. Further, the GI50 in the assay on NCI/ADR-RES and with NCI-H460 was > 100 µM (inactive) each time.

Take `CSC(=S)N/N=C(\C)c1cccc(C)n1`: the GI50 is 0.953 µM (active) in the assay with HOP-62; 1.21 µM (inactive) in the assay with UO-31; 5.77 µM (inactive) in the assay with OVCAR-5; 0.998 µM (active) with RXF 393; 3.17 µM (inactive) with HCC 2998; 0.123 µM (active) with MOLT-4. The GI50 with OVCAR-3 was 0.0568 µM (active); with LOX IMVI it was 1.13 µM (inactive); in the assay on K562, 0.042 µM (active); in the assay with SR, 0.23 µM (active); in the assay on SW-620 it was 0.208 µM (active); with TK-10 it was 0.975 µM (active). For the same compound, the GI50 is 0.762 µM (active) in the assay on A549, 1.36 µM (inactive) in the assay on NCI/ADR-RES and 0.456 µM (active) in the assay with NCI-H460.

In the case of `CC(C)(C)c1cc(S(=O)(=O)O)c2oc(-c3ccccc3)cc(=O)c2c1`, the GI50 with HOP-62, in the assay on UO-31, with RXF 393, with HCC 2998, in the assay with MOLT-4 and in the assay with RPMI-8226 was > 100 µM (inactive) throughout. Moreover, the GI50 with OVCAR-3, in the assay on LOX IMVI, in the assay with K562, in the assay with SR, in the assay with SW-620 and in the assay with TK-10 was > 100 µM (inactive) throughout. Also, the GI50 in the assay with A549, in the assay with NCI/ADR-RES and with NCI-H460 was > 100 µM (inactive) throughout.

For the compound `Nc1cccc(C#Cc2cccc(C#Cc3cccc(N)n3)n2)n1`, the GI50 is > 100 µM (inactive) in the assay on HOP-62; > 100 µM (inactive) with UO-31; > 100 µM (inactive) in the assay on OVCAR-5; > 100 µM (inactive) with RXF 393; > 100 µM (inactive) in the assay with HCC 2998; 32.8 µM (inactive) in the assay with MOLT-4. Also, the GI50 with RPMI-8226 was 91 µM (inactive); in the assay with OVCAR-3 it was > 100 µM (inactive); in the assay on LOX IMVI, > 100 µM (inactive); with K562, > 100 µM (inactive); with SR, 14 µM (inactive); in the assay with SW-620, > 100 µM (inactive). The GI50 in the assay on TK-10 is > 100 µM (inactive); with NCI/ADR-RES, > 100 µM (inactive); with NCI-H460, 37.2 µM (inactive).

Consider `O=C(CCC1OCCO1)Nc1cc(NCc2ccccc2)ccc1OCc1ccccc1`, for which the GI50 is > 100 µM (inactive) with HOP-62; 33.9 µM (inactive) in the assay with UO-31; 46.9 µM (inactive) in the assay on OVCAR-5; 28.8 µM (inactive) in the assay with RXF 393; 33 µM (inactive) in the assay on HCC 2998; 20.5 µM (inactive) with MOLT-4. Moreover, the GI50 in the assay with RPMI-8226 is 20.1 µM (inactive); in the assay with LOX IMVI, 33.7 µM (inactive); in the assay with K562, 28.9 µM (inactive); in the assay with SR, 27.9 µM (inactive); in the assay with SW-620 it was 42.1 µM (inactive); in the assay with TK-10 it was 26.6 µM (inactive). Besides, the values for the GI50 with A549, in the assay on NCI/ADR-RES and in the assay on NCI-H460 were 30.6 µM (inactive), 43.1 µM (inactive) and 39.1 µM (inactive), respectively.

Consider `CC1(C)N=c2c(ncn2Cc2ccccc2)=C(C(N)=O)N1`, for which the GI50 in the assay with HOP-62, in the assay on OVCAR-5, with RXF 393, in the assay on HCC 2998, in the assay with RPMI-8226 and in the assay on OVCAR-3 was > 100 µM (inactive) each time. In addition, the GI50 with LOX IMVI, in the assay on K562, in the assay with SR, in the assay on SW-620, in the assay on TK-10 and in the assay on A549 was > 100 µM (inactive) each time. The GI50 with NCI/ADR-RES and with NCI-H460 was > 100 µM (inactive) each time.

`COc1cc(C=O)ccc1Oc1nnnn1-c1ccccc1`: the GI50 in the assay with HOP-62 is > 100 µM (inactive); with UO-31 it was 94.4 µM (inactive); with OVCAR-5 it was > 100 µM (inactive); in the assay on RXF 393, > 100 µM (inactive); with MOLT-4, 23.1 µM (inactive); in the assay with RPMI-8226, 32.8 µM (inactive). For the same compound, the GI50 with OVCAR-3 was 45.7 µM (inactive); with LOX IMVI it was 39.9 µM (inactive); in the assay with K562, 34.7 µM (inactive); in the assay with SR it was 18.9 µM (inactive); in the assay on SW-620, 27.5 µM (inactive); in the assay with TK-10, > 100 µM (inactive). In addition, the GI50 was > 100 µM (inactive) in the assay on A549, 38.5 µM (inactive) in the assay with NCI/ADR-RES and > 100 µM (inactive) in the assay with NCI-H460.

`C1=Cc2cccc3occ(c23)C=C1`: the GI50 in the assay on HOP-62 is > 100 µM (inactive); in the assay with UO-31 it was 41.8 µM (inactive); with OVCAR-5 it was > 100 µM (inactive); in the assay with RXF 393 it was 25.8 µM (inactive); in the assay with HCC 2998, 29 µM (inactive); with MOLT-4, 25.6 µM (inactive). Further, the GI50 is 31.2 µM (inactive) in the assay with OVCAR-3; 17.9 µM (inactive) with LOX IMVI; 16.3 µM (inactive) in the assay with K562; 15.8 µM (inactive) in the assay on SR; 39.1 µM (inactive) in the assay on SW-620; 36 µM (inactive) in the assay on TK-10. For the same compound, the GI50 is > 100 µM (inactive) in the assay on A549, > 100 µM (inactive) in the assay on NCI/ADR-RES and 41.3 µM (inactive) in the assay with NCI-H460.

Consider `COc1cc2cc(C(=O)N3CC(CCl)c4c3cc(NC(=O)OCc3ccc([N+](=O)[O-])cc3)c3ccccc43)[nH]c2c(OC)c1OC` (stereo not given), for which the GI50 with HOP-62 is 16.3 µM (inactive); in the assay with UO-31, 0.125 µM (active); with OVCAR-5, 29.4 µM (inactive); in the assay on RXF 393, 14 µM (inactive); in the assay with HCC 2998, 0.0226 µM (active); with MOLT-4, 9.73 µM (inactive). Besides, the GI50 in the assay with RPMI-8226 was 13.3 µM (inactive); in the assay with OVCAR-3, > 100 µM (inactive); in the assay with LOX IMVI it was 38.7 µM (inactive); with SR, 0.0432 µM (active); with SW-620 it was 28.2 µM (inactive); in the assay with TK-10, 0.327 µM (active). Further, the GI50 in the assay with A549 was 8.65 µM (inactive); in the assay with NCI/ADR-RES, 3.67 µM (inactive); in the assay on NCI-H460, < 0.0173 µM (active).

On to `COc1cc2nc(-c3cccs3)[nH]c(=O)c2cc1OC`, for which the GI50 in the assay on HOP-62 is > 100 µM (inactive); in the assay on UO-31, > 100 µM (inactive); with OVCAR-5, 28.6 µM (inactive); with RXF 393, > 100 µM (inactive); with RPMI-8226, 65.5 µM (inactive); in the assay with OVCAR-3 it was > 100 µM (inactive). Further, the GI50 with LOX IMVI was > 100 µM (inactive); in the assay on K562, > 100 µM (inactive); with SR, 13.8 µM (inactive); in the assay with SW-620, > 100 µM (inactive); in the assay with TK-10, > 100 µM (inactive); in the assay with A549 it was > 100 µM (inactive). Also, the GI50 in the assay on NCI/ADR-RES and with NCI-H460 was > 100 µM (inactive) each time.
